Tested on: MOLM-13 cells
Test: Viability assay in MOLM-13 cells (CellTiter-Glo 2.0)
Format: cell-based, human
Conditions: Homo sapiens, MOLM-13, 72 h, read-out: MOLM-13 IC50 (cell viability)
Description: Effects of test compounds on the proliferation and viability of human AML cells was evaluated using the MOLM-13 cell line (AddexBio Technologies cat. no. C0003003). […] Test compounds or controls (Bortezomib or DMSO) diluted in 2% DMSO/media were added to each well for final concentrations of 0.2% DMSO and 0.1-1 μM Bortezomib. The cells were incubated for 72 hours at 37° C. and 5% CO2. At the end of the 72 hour incubation, plates were removed from the incubator, cooled to room temperature and equal volume of CellTiter-Glo 2.0 (Promega) added to each well. After mixing and incubating the plate at room temperature for 10 minutes the luminescence was read using a plate reader. […] Concentration-response-curves and IC50 values were generated using Collaborative Drug Discovery software.

| Compound | IC50 [µM] |
| --- | --- |
| O=c1c2cnccc2ccn1Cc1cn2cc(CNCc3ccccc3)ccc2n1 [Compound 69, 2-((6-((benzylamino)methyl)imidazo[1,2-a]pyridin-2-yl)methyl)-2,7-naphthyridin-1(2H)-one] | > 10 |
| O=c1c2cncc(-c3ccccc3)c2ccn1Cc1cn2cc(-c3cc(N4CCC4)ccn3)ccc2n1 [Compound 105, 2-((6-(4-(azetidin-1-yl)pyridin-2-yl)imidazo[1,2-a]pyridin-2-yl)methyl)-5-phenyl-2,7-naphthyridin-1(2H)-one] | 1 to 10 |

Same assay, conditions: MOLM-13 human AML cells, 72 hours, CellTiter-Glo 2.0; read-out: MOLM-13 IC50 (cell viability)

| IC50 [µM] | Compound |
| --- | --- |
| 1 to 10 | O=c1c2cncc(N3CCC3)c2ccn1Cc1cn2cc(CNCC3CC(F)C3)ccc2n1 (stereo not shown) [Compound 89, 5-(azetidin-1-yl)-2-((6-((((3-fluorocyclobutyl)methyl)-amino)methyl)imidazo[1,2-a]pyridin-2-yl)methyl)-2,7-naphthyridin-1(2H)-one] |
| 1 to 10 | CC(C)(C)CNCc1ccc2nc(Cn3ccc4c(-c5ccccc5)cncc4c3=O)cn2c1 [Compound 73, 2-((6-((neopentylamino)methyl)imidazo[1,2-a]pyridin-2-yl)methyl)-5-phenyl-2,7-naphthyridin-1(2H)-one] |
| 1 to 10 | O=c1c2cncc(-c3ccccc3)c2ccn1Cc1cn2cc(CNCC3CCCCC3)ccc2n1 [Compound 77, 2-((6-(((cyclohexylmethyl)amino)methyl)imidazo[1,2-a]pyridin-2-yl)methyl)-5-phenyl-2,7-naphthyridin-1(2H)-one] |
| 1 to 10 | CC1(C)CCN(Cc2ccc3nc(Cn4ccc5c(N6CCC(F)(F)CC6)cncc5c4=O)cn3c2)CC1 [Compound 112, 5-(4,4-difluoropiperidin-1-yl)-2-({6-[(4,4-dimethylpiperidin-1-yl)methyl]imidazo[1,2-a]pyridin-2-yl}methyl)-1,2-dihydro-2,7-naphthyridin-1-one] |
| 1 to 10 | CNc1ccc2ccc(-c3ccc(Cn4ccc5c(-c6ccccc6)cncc5c4=O)cc3)cc2n1 [Compound 94, 2-(4-(2-(methylamino)quinolin-7-yl)benzyl)-5-phenyl-2,7-naphthyridin-1(2H)-one] |
| 1 to 10 | COc1ccnc(NCc2ccc3nc(Cn4ccc5c(-c6ccccc6)cncc5c4=O)cn3c2)c1 [Compound 101, 2-((6-(((4-methoxypyndin-2-yl)amino)methyl)imidazo[1,2-a]pyridin-2-yl)methyl)-5-phenyl-2,7-naphthyridin-1(2H)-one] |
| > 10 | CNC(=O)c1ccc(-c2cncc3c(=O)n(Cc4cn5cc(C)ccc5n4)ccc23)cc1 [Compound 26, N-methyl-4-(7-((6-methylimidazo[1,2-a]pyridin-2-yl)methyl)-8-oxo-7,8-dihydro-2,7-naphthyridin-4-yl)benzamide] |
| 1 to 10 | CC(C)(NCc1ccc2nc(Cn3ccc4c(-c5ccccc5)cncc4c3=O)cn2c1)c1ccccc1 [Compound 81, 5-phenyl-2-((6-(((2-phenylpropan-2-yl)amino)methyl)imidazo[1,2-a]pyridin-2-yl)methyl)-2,7-naphthyridin-1(2H)-one] |
| 1 to 10 | O=c1c2cncc(N3CC4(CCOCC4)C3)c2ccn1Cc1cn2cc(CN3CC4(CC(F)C4)C3)ccc2n1 [Compound 136, 2-{[6-({6-fluoro-2-azaspiro[3.3]heptan-2-yl}methyl)imidazo[1,2-a]pyridin-2-yl]methyl}-5-{7-oxa-2-azaspiro[3.5]nonan-2-yl}-1,2-dihydro-2,7-naphthyridin-1-one] |
| > 10 | CC(=O)Nc1ccc(-c2cncc3c(=O)n(Cc4cn5cc(C)ccc5n4)ccc23)cn1 [Compound 38, N-(5-(7-((6-methylimidazo[1,2-a]pyridin-2-yl)methyl)-8-oxo-7,8-dihydro-2,7-naphthyridin-4-yl)pyridin-2-yl)acetamide] |
| 1 to 10 | CC1(C)CCN(Cc2ccc3nc(Cn4ccc5c(N6CC7(CCOCC7)C6)cncc5c4=O)cn3c2)CC1 [Compound 114, 2-({6-[(4,4-dimethylpiperidin-1-yl)methyl]imidazo[1,2-a]pyridin-2-yl}methyl)-5-{7-oxa-2-azaspiro[3.5]nonan-2-yl}-1,2-dihydro-2,7-naphthyridin-1-one] |
